Test results: US20100137313A1 (ASTRAZENECA AB, priority 2008, published 2010)

Biological target: S. pneumoniae Topoisomerase IV ATPase (ParE) (Streptococcus pneumoniae serotype 4, UniProt Q59961)
Assay: S. pneumoniae Topoisomerase IV ATPase inhibition
Type: biochemical
Settings: values marked * are an average of two or more data points, read-out: % Inh (13 μM) of S. pneumoniae Topoisomerase IV ATPase
How it was run: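 Malachite green/ammonium molybdate phosphate detection, A650. 1.25 nM ParE, 160 μM ATP, sheared salmon sperm DNA 5 μg/ml, 20 mM Tris pH 8.0, 8.0 mM MgCl2. Controls: 2% DMSO = 0%, 20 μM EDTA = 100% inhibition; IC50 over 10 concentrations.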

Sequence of S. pneumoniae Topoisomerase IV ATPase (ParE) (Q59961 whole entry): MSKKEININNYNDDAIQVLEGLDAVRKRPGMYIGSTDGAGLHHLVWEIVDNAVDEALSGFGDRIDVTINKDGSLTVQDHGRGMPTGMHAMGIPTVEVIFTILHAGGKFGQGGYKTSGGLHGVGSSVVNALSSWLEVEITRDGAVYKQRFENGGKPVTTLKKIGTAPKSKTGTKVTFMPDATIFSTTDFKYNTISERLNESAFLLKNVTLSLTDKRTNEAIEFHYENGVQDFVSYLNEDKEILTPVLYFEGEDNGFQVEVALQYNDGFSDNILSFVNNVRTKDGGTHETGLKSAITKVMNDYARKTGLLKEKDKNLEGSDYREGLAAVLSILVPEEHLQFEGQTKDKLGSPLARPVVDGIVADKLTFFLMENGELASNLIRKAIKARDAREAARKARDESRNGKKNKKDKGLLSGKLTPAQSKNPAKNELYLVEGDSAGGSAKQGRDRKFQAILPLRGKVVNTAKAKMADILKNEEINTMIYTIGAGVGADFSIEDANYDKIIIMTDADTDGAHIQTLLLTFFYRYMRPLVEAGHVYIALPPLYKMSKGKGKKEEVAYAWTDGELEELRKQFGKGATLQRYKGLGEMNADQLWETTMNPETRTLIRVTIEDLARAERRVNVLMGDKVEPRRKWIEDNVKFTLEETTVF

Structure (SMILES)	inhibition at 13 µM
COc1cc(Nc2ncc(-c3ccc(C(=O)O)s3)c(NCCCN(C)C)n2)c(OC)cc1Cl [Example 347, 5-(2-(4-chloro-2,5-dimethoxyphenyl-amino)-4-(3-(dimethylamino)propylamino)pyrimidin-5-yl)thiophene-2-carboxylic acid]	42.2%
COc1cc(Nc2ncc(-c3cccc(/C=C/C(=O)O)c3)c(N3CC(C)OC(C)C3)n2)cc(C(F)(F)F)c1 (stereo not shown) [Example 348, (E)-3-(3-(4-(2,6-dimethylmorpholino)-2-(3-methoxy-5-(trifluoromethyl)phenylamino)pyrimidin-5-yl)phenyl) acrylic acid]	85.7%
COc1cc(Nc2ncc(-c3cnc(OC)nc3)c(N3CC(C)OC(C)C3)n2)cc(C(F)(F)F)c1 (stereo not shown) [Example 349, 4-(2,6-dimethylmorpholino)-2′-methoxy-N-(3-methoxy-5-(trifluoromethyl)phenyl)-5,5′-bipyrimidin-2-amine]	83.6%
O=C(O)/C=C/c1cccc(-c2cnc(Nc3ccc(F)c(F)c3)nc2N2CCOCC2)c1 [Example 350, (E)-3-(3-(2-(3,4-difluorophenylamino)-4-morpholinopyrimidin-5-yl)phenyl)acrylic acid]	69%
COc1cc(Nc2ncc(-c3cccc(/C=C/C(=O)O)c3)c(N3CCOCC3)n2)cc(OC)c1 [Example 351, (E)-3-(3-(2-(3,5-dimethoxyphenylamino)-4-morpholinopyrimidin-5-yl)phenyl) acrylic acid]	82.8%
Fc1ccc(Nc2ncc(-c3cncnc3)c(N3CCOCC3)n2)cc1F [Example 352]	26.7%
COc1cc(Nc2ncc(-c3cccc(/C=C/C(=O)O)c3)c(NCCc3ccncc3)n2)cc(OC)c1 [Example 353, (E)-3-(3-(2-(3,5-dimethoxyphenyl-amino)-4-(2-(pyridin-4-yl)ethylamino)pyrimidin-5-yl)phenyl) acrylic acid]	83.9%
COc1cc(Nc2ncc(-c3cncnc3)c(NCCc3ccncc3)n2)cc(OC)c1 [Example 354, N^2-(3,5-dimethoxyphenyl)-N^4-(2-(pyridin-4-yl)ethyl)-5,5′-bipyrimidine-2,4-diamine]	80.5%
COc1cc(Nc2ncc(-c3cccc(/C=C/C(=O)O)c3)c(NCCc3ccncc3)n2)cc(C(F)(F)F)c1 [Example 355, (E)-3-(3-(2-(3-methoxy-5-(trifluoromethyl)phenylamino)-4-(2-(pyridin-4-yl)ethylamino)pyrimidin-5-yl)phenyl) acrylic acid]	86.6%
COc1cc(Nc2ncc(-c3cnc(OC)nc3)c(NCCc3ccncc3)n2)cc(C(F)(F)F)c1 [Example 356, 2′-methoxy-N^2-(3-methoxy-5-(trifluoromethyl)phenyl)-N^4-(2-(pyridin-4-yl)ethyl)-5,5′-bipyrimidine-2,4-diamine]	86.5%
COc1cc(Nc2ncc(-c3cccc(/C=C/C(=O)O)c3)c(N[C@@H]3CCOC3)n2)cc(OC)c1 [Example 357, (R,E)-3-(3-(2-(3,5-dimethoxyphenylamino)-4-(tetrahydrofuran-3-ylamino)pyrimidin-5-yl)phenyl)acrylic acid]	85.3%
COc1cc(Nc2ncc(-c3cncnc3)c(N[C@@H]3CCOC3)n2)cc(OC)c1 [Example 358, (R)-N^2-(3,5-dimethoxyphenyl)-N^4-(tetrahydrofuran-3-yl)-5,5′-bipyrimidine-2,4-diamine]	63%
O=C(O)/C=C/c1cccc(-c2cnc(Nc3ccc(F)c(Cl)c3)nc2-n2ccnc2)c1 [Example 359, (E)-3-(3-(2-(3-chloro-4-fluorophenylamino)-4-(1H-imidazol-1-yl)pyrimidin-5-yl)phenyl)acrylic acid]	86.1%
CONC(=O)c1cccc(-c2cnc(Nc3ccc(F)c(Cl)c3)nc2NCCCN(C)C)c1 [Example 360, 3-(2-(3-chloro-4-fluorophenylamino)-4-(3-(dimethylamino)propylamino)pyrimidin-5-yl)-N-methoxybenzamide]	112%
CCNC(=O)c1cccc(-c2cnc(Nc3ccc(F)c(Cl)c3)nc2NCCCN(C)C)c1 [Example 361, 3-(2-(3-chloro-4-fluorophenylamino)-4-(3-(dimethylamino)propylamino)pyrimidin-5-yl)-N-ethylbenzamide]	94.8%
CN(C)CCCNc1nc(Nc2ccc(F)c(Cl)c2)ncc1-c1cccc(C(=O)NCc2ccccc2)c1 [Example 362, N-benzyl-3-(2-(3-chloro-4-fluorophenylamino)-4-(3-(dimethylamino)propylamino)pyrimidin-5-yl) benzamide]	107%
CCNC(=O)c1ccc(-c2cnc(Nc3ccc(F)c(Cl)c3)nc2NCCCN(C)C)cc1 [Example 363, 4-(2-(3-chloro-4-fluorophenylamino)-4-(3-(dimethylamino)propylamino)pyrimidin-5-yl)-N-ethylbenzamide]	57.9%

Structure (SMILES)	inhibition at 13 µM
CN(C)CCCNc1nc(Nc2ccc(F)c(Cl)c2)ncc1-c1ccc(C(=O)N(C)C)cc1 [Example 364, 4-(2-(3-chloro-4-fluorophenylamino)-4-(3-(dimethylamino)propylamino)pyrimidin-5-yl)-N,N-dimethylbenzamide]	112%
CN(C)CCCNc1nc(Nc2ccc(F)c(Cl)c2)ncc1-c1ccc(C(=O)NCc2ccccc2)cc1 [Example 365, N-benzyl-4-(2-(3-chloro-4-fluorophenylamino)-4-(3-(dimethylamino)propylamino)pyrimidin-5-yl) benzamide]	110%
CN(C)CCCNc1nc(Nc2ccc(F)c(Cl)c2)ncc1-c1ccc(C(=O)N(C)C)s1 [Example 366, 5-(2-(3-chloro-4-fluorophenylamino)-4-(3-(dimethylamino)propylamino)pyrimidin-5-yl)-N,N-dimethylthiophene-2-carboxamide]	80.5%
CCNC(=O)c1ccc(-c2cnc(Nc3ccc(F)c(Cl)c3)nc2NCCCN(C)C)s1 [Example 367, 5-(2-(3-chloro-4-fluorophenylamino)-4-(3-(dimethylamino)propylamino)pyrimidin-5-yl)-N-ethylthiophene-2-carboxamide]	104%
CN(C)CCCNc1nc(Nc2ccc(F)c(Cl)c2)ncc1-c1ccc(C(=O)NCc2ccccc2)s1 [Example 368, N-benzyl-5-(2-(3-chloro-4-fluorophenylamino)-4-(3-(dimethylamino)propylamino)pyrimidin-5-yl) thiophene-2-carboxamide]	105%
CN(C)CCCNc1nc(Nc2ccc(F)c(Cl)c2)ncc1-c1ccc(C(=O)N2CCCCC2)s1 [Example 369, (5-(2-(3-chloro-4-fluorophenylamino)-4-(3-(dimethylamino)propylamino)pyrimidin-5-yl)thiophen-2-yl) (piperidin-1-yl) methanone]	122%
CN(C)CCCNc1nc(Nc2ccc(F)c(Cl)c2)ncc1-c1ccc(C(=O)N2CCCC(F)(F)C2)s1 [Example 370, (5-(2-(3-chloro-4-fluorophenylamino)-4-(3-(dimethylamino)propylamino)pyrimidin-5-yl)thiophen-2-yl) (3,3-difluoro-piperidin-1-yl) methanone]	129%
CN(C)CCCNc1nc(Nc2ccc(F)c(Cl)c2)ncc1-c1cncc(C(=O)NCc2ccccc2)c1 [Example 371, N-benzyl-5-(2-(3-chloro-4-fluorophenylamino)-4-(3-(dimethylamino)propylamino)pyrimidin-5-yl) nicotinamide]	82.2%
CNC(=O)/C=C/c1cccc(-c2cnc(Nc3cc(OC)cc(C(F)(F)F)c3)nc2NCCc2ccncc2)c1 [Example 372]	80.9%
COc1cc(Nc2ncc(-c3cccc(/C=C/C(N)=O)c3)c(NCCc3ccncc3)n2)cc(C(F)(F)F)c1 [Example 373, (E)-3-(3-(2-(3-methoxy-5-(trifluoromethyl)phenylamino)-4-(2-(pyridin-4-yl)ethylamino)pyrimidin-5-yl)phenyl)acrylamide]	82.8%
CONC(=O)/C=C/c1cccc(-c2cnc(Nc3cc(OC)cc(C(F)(F)F)c3)nc2NCCc2ccncc2)c1 [Example 374, (E)-N-methoxy-3-(3-(2-(3-methoxy-5-(trifluoromethyl)phenylamino)-4-(2-(pyridin-4-yl)ethylamino)pyrimidin-5-yl)phenyl)acrylamide]	81.2%
CNC(=O)/C=C/c1cccc(-c2cnc(Nc3ccc(F)c(Cl)c3)nc2N2CCOCC2)c1 [Example 375, (E)-3-(3-(2-(3-chloro-4-fluorophenylamino)-4-morpholinopyrimidin-5-yl)phenyl)-1H-methylacrylamide]	75.9%
CONC(=O)/C=C/c1cccc(-c2cnc(Nc3ccc(F)c(Cl)c3)nc2N2CCOCC2)c1 [Example 376, (E)-3-(3-(2-(3-chloro-4-fluorophenylamino)-4-morpholinopyrimidin-5-yl)phenyl)-N-methoxyacrylamide]	87.2%
CC(=O)NCCCNc1nc(Nc2ccc(F)c(Cl)c2)ncc1-c1cncnc1 [Example 377, N-(3-(2-(3-chloro-4-fluorophenylamino)-5,5′-bipyrimidin-4-ylamino)propyl)acetamide]	78.9%
CCOC(=O)c1cncc(-c2cnc(Nc3cc(OC)cc(-n4cnnn4)c3)nc2N2CCOCC2)c1 [Example 380, 5-[2-(3-Methoxy-5-tetrazol-1-yl-phenylamino)-4-morpholin-4-yl-pyrimidin-5-yl]-nicotinic acid ethyl ester]	37%
O=C(O)c1cncc(-c2cnc(Nc3cc(F)cc(F)c3)nc2N2CCOCC2)c1 [Example 388, 5-[2-(3,5-Difluoro-phenylamino)-4-morpholin-4-yl-pyrimidin-5-yl]nicotinic acid]	72%
Cc1cc(C)cc(Nc2ncc(-c3cncc(C(=O)O)c3)c(N3CCOCC3)n2)c1 [Example 389, 5-[2-(3,5-Dimethyl-phenylamino)-4-morpholin-4-yl-pyrimidin-5-yl]-nicotinic acid]	85%
